Experimental data from patent US9676723B2, “Factor XIa inhibitors” (Merck Sharp & Dohme Corp., priority 2014, dated 2017).
Counter-ions that a name gives are not always drawn.

Target: T1, human Factor XIa (Homo sapiens, UniProt P03951)
T1 construct: purified human Factor XIa; purchased Sekisui Diagnostics
Assay: Factor XIa Assay (fluorogenic substrate Z-Gly-Pro-Arg-AFC hydrolysis)
Format: biochemical
Conditions: purified human Factor XIa 40 pM; substrate Z-Gly-Pro-Arg-AFC 100 μM; 50 mM HEPES pH 7.4; read-out: hu Factor XIa Ki
Experimental: The effectiveness of compounds of the present invention as inhibitors of Coagulation Factor XIa can be determined using a relevant purified serine protease, and an appropriate synthetic substrate. The rate of hydrolysis of the chromogenic or fluorogenic substrate by the relevant serine protease was measured both in the absence and presence of compounds of the present invention. Assays were conducted at room temperature or at 37° C. […] A decrease in the rate of fluorescence change in the presence of inhibitor is indicative of enzyme inhibition. Such methods are known to one skilled in the art. The results of this assay are expressed as the inhibitory constant, Ki.
Factor XIa determinations were made in 50 mM HEPES buffer at pH 7.4 containing 150 mM NaCl, 5 mM CaCl2, and 0.1% PEG 8000 (polyethylene glycol; JT Baker or Fisher Scientific). Determinations were made using purified human Factor XIa at a final concentration of 40 pM (Sekisui Diagnostics) and the synthetic substrate, Z-Gly-Pro-Arg-AFC, TFA salt (Sigma #C0980) at a concentration of 100 μM.
Activity assays were performed by diluting a stock solution of substrate at least tenfold to a final concentration ≦0.1 Km into a solution containing enzyme or enzyme equilibrated with inhibitor. Times required to achieve equilibration between enzyme and inhibitor were determined in control experiments. Initial velocities of product formation in the absence (Vo) or presence of inhibitor (Vi) were measured. Assuming competitive inhibition, and that unity is negligible compared Km/[S], [I]/e, and [I]/e (where [S], [I], and e respectively represent the total concentrations, of substrate, inhibitor and enzyme), the equilibrium constant (Ki) for dissociation of the inhibitor from the enzyme can be obtained from the dependence of Vo/Vi on [I] shown in the following equation. Vo/Vi=1+[I]/Ki

T1 sequence (P03951 388-625 limits assumed): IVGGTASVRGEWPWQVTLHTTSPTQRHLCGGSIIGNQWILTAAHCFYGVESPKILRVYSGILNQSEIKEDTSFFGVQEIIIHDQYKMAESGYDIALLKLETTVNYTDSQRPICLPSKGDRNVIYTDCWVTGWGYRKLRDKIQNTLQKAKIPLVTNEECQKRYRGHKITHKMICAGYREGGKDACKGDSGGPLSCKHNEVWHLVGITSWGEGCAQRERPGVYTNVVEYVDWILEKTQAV
T1 sequence (P03951 19-387 partner limits assumed): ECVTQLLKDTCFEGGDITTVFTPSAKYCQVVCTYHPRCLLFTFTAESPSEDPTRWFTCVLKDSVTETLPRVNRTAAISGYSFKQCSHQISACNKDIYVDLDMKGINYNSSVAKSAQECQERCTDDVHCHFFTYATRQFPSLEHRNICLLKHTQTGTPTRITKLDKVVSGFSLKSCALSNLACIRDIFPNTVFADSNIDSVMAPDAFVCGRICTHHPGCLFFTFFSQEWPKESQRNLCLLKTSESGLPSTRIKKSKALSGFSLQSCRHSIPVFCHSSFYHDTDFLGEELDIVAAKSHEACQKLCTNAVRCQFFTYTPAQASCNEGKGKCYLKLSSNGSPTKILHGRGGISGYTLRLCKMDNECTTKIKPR

Ki	Structure (SMILES)
44 nM	NCc1ccc2c(c1)CCN([C@@H](Cc1ccccc1)C(=O)Nc1ccc(C(=O)O)cc1)C2=O [Example 1, 4-({(2S)-2-[6-(aminomethyl)-1-oxo-3,4-dihydroisoquinolin-2(1H)-yl]-3-phenylpropanoyl}amino)benzoic acid trifluoroacetate]
116 nM	COC(=O)Nc1ccc(-c2cnc([C@H](Cc3ccccc3)N3CCc4cc(CN)ccc4C3=O)[nH]2)cc1 [Example 2, (S)-METHYL (4-(2-(1-(6-(AMINOMETHYL)-1-OXO-3,4-DIHYDROISOQUINOLIN-2(1H)-YL)-2-PHENYLETHYL)-1H-IMIDAZOL-5-YL)PHENYL)CARBAMATE 2,2,2-TRIFLUOROACETATE]
308 nM	NCc1ccc2c(c1)CN([C@@H](Cc1ccccc1)C(=O)Nc1ccc(C(=O)O)cc1)C2=O [Example 3]
176 nM	NCc1ccc2c(c1)CCN(C(Cc1ccccc1)C(=O)Nc1ccc(C(=O)O)cc1)C2=O (centres unmarked) [Example 4]
546 nM	NCc1ccc2c(c1)CCN([C@@H](Cc1ccccc1)c1ncc(-c3ccc(C(=O)O)s3)[nH]1)C2=O [Example 5]
14 nM	COC(=O)Nc1ccc(-c2[nH]c([C@H](Cc3ccccc3)N3CCc4cc(CN)ccc4C3=O)nc2Cl)cc1 [Example 6]
246 nM	NCc1ccc2c(c1)CCN([C@@H](Cc1ccccc1)C(=O)Nc1ccc3[nH]ncc3c1)C2=O [Example 7]
907 nM	Cc1nc2cc(NC(=O)[C@H](Cc3ccccc3)N3CCc4cc(CN)ccc4C3=O)ccc2s1 [Example 8]
1080 nM	NCc1ccc2c(c1)CCN([C@@H](Cc1ccccc1)C(=O)Nc1cccc(F)c1)C2=O [Example 9]
4130 nM	NCc1ccc2c(c1)CCN([C@@H](Cc1ccccc1)c1ncc(-c3cccc(F)c3)[nH]1)C2=O [Example 10]
84 nM	COC(=O)Nc1ccc(-c2[nH]c([C@H](Cc3ccccc3)N3CCc4cc(CN)ccc4C3=O)nc2C)cc1 [Example 11]
53 nM	NCc1ccc2c(c1)CCN([C@@H](Cc1ccccc1)c1ncc(-c3ccc4c(N)n[nH]c4c3)[nH]1)C2=O [Example 12]
151 nM	NCc1ccc2c(c1)CCN([C@@H](Cc1ccccc1)C(=O)Nc1ccc3c(N)n[nH]c3c1)C2=O [Example 13]
435 nM	CC(C)COC(=O)Nc1ccc(-c2[nH]c([C@H](Cc3ccccc3)N3CCc4cc(CN)ccc4C3=O)nc2Cl)cc1 [Example 14]
506 nM	NCc1ccc2c(c1)CCN([C@@H](Cc1ccccc1)c1nc(Cl)c(-c3ccc(NC(=O)OC4CCCC4)cc3)[nH]1)C2=O [Example 15]
68.9 nM	NCc1ccc2c(c1)CCN([C@@H](Cc1ccccc1)C(=O)Nc1ccc(-c3c[nH]cn3)cc1)C2=O [Example 19]
94.3 nM	NCc1ccc2c(c1)CCN([C@@H](Cc1ccccc1)C(=O)Nc1ccc(-c3cc[nH]n3)cc1)C2=O [Example 20]
254 nM	Cc1nnc(-c2ccc(NC(=O)[C@H](Cc3ccccc3)N3CCc4cc(CN)ccc4C3=O)cc2)[nH]1 [Example 21]
240 nM	Cc1ncc(-c2ccc(NC(=O)[C@H](Cc3ccccc3)N3CCc4cc(CN)ccc4C3=O)cc2)o1 [Example 22]
1080 nM	Cc1ccc(-c2ccc(NC(=O)[C@H](Cc3ccccc3)N3CCc4cc(CN)ccc4C3=O)cc2)o1 [Example 23]
1080 nM	NCc1ccc2c(c1)CCN([C@@H](Cc1ccccc1)C(=O)Nc1ccc3ccncc3c1)C2=O [Example 24]
221 nM	NCc1ccc2c(c1)CCN([C@@H](Cc1ccccc1)C(=O)Nc1ccc(-c3cnc(C4CC4)o3)cc1)C2=O [Example 25]
207 nM	Cn1ccc(-c2ccc(NC(=O)[C@H](Cc3ccccc3)N3CCc4cc(CN)ccc4C3=O)cc2)n1 [Example 26]
284 nM	Cc1nc2ccc(NC(=O)[C@H](Cc3ccccc3)N3CCc4cc(CN)ccc4C3=O)cc2s1 [Example 27]
1470 nM	Cc1nsc2ccc(NC(=O)[C@H](Cc3ccccc3)N3CCc4cc(CN)ccc4C3=O)cc12 [Example 28]
198 nM	COC(=O)Nc1ccc(-c2cnc([C@H](Cc3ccccc3)N3CCc4c(ccc(CN)c4C4CC4)C3=O)[nH]2)cc1 [Example 29, (S)-methyl (4-(2-(1-(6-(aminomethyl)-5-cyclopropyl-1-oxo-3,4-dihydroisoquinolin-2(1H)-yl)-2-phenylethyl)-1H-imidazol-5-yl)phenyl)carbamate 2,2,2-trifluoroacetate]
